From US6495593B1, “Compositions for preventing or treating adverse physiological effects associated with cardiac disease” (Dry Creek Nutrition, Inc., priority 1999, dated 2002)

What was measured:
[1] = In vitro hydroxyl radical scavenging assay (γ-irradiated coumarin-3-carboxylic acid); settings: 1 mM; 10^-5 M CCA, γ-irradiation
Description: Aqueous solution of coumarin-3-carboxylic acid (CCA) was diluted in PBS buffer, pH 7.4 to give a final concentration of 10^−5 M. Polymethylmethacrylate cuvettes containing 2.5 mL CCA solution were irradiated with ^137Cs γ-ray (dose rate 1.14 Gy/min) (MDS Nordian., Ontario, Canada) at room temperature. […] Fluorescence was measured at room temperature with a Perkin Elmer LS 50 fluorimeter (excitation 400 nm, emission 450 nm) (Collins et al., “Coumarin Chemical Dosimeter for Radiation Therapy,” Med. Phys., 21: 1741-1747 (1994)). […] The scavenging activity of the proanthocyanidin extract was compared against 1 mM DMSO.

[2] = In vitro peroxyl radical scavenging assay (AAPH / 5-/6-carboxyfluorescein); settings: 25 μg/mL; AAPH 2 mM
Description: Peroxyl radical scavenging activity was examined by adding proanthocyanidin to a peroxyl radical generating system (Makrigiorgos et al., “Novel Fluorescein-Based Flow Cytometric Method for Detection of Lipid Peroxidation,” Free Rad. Biol. Med., 22:93-100 (1997)). Peroxyl radicals were generated by dissolving 2,2′-azobis (2-amidinopropane) dihydrochloride (AAPH) in phosphate buffered saline (PBS) at 37° C. Scavenging activity of proanthocyanidin was compared with trolox (100 μM), a known peroxyl radical scavenger.

Compound | induction of 7-OH-CCA formation (hydroxyl radical scavenging) [1] | peroxyl radical scavenging activity relative to proanthocyanidin 10 μg/mL [2]
C[S+](C)[O-] [DMSO, dimethyl sulfoxide] | reduced the induction of 7-OH-CCA formation | –
Cc1c(C)c2c(c(C)c1O)CCC(C)(C(=O)O)O2 (centres unmarked) [trolox] | – | comparable
